Measurements as given in paper PMC12670511, “Discovery of Nav1.7 Inhibitors through the Screening of Marine Natural Product Extracts” (Journal of Natural Products, 2025).

Experiments:
[1] = molecular target: T1, human Nav1.7 (hNav1.7) voltage-gated sodium channel alpha subunit (Homo sapiens, UniProt Q15858); assay: Qube automated patch-clamp electrophysiology, HEK293-hNav1.[…], inactivated state (-70 mV); also thallium flux assay IC50 […]; assay type: cell-based
T1 construct: gene SCN9A; alpha subunit, stably expressed in HEK293 cells

[2] = molecular target: T1, human Nav1.7 (hNav1.7) voltage-gated sodium channel alpha subunit; assay: Qube automated patch-clamp electrophysiology, HEK293-hNav1.[…], inactivated state (-70 mV); assay type: cell-based

T1 sequence (Q15858 whole entry): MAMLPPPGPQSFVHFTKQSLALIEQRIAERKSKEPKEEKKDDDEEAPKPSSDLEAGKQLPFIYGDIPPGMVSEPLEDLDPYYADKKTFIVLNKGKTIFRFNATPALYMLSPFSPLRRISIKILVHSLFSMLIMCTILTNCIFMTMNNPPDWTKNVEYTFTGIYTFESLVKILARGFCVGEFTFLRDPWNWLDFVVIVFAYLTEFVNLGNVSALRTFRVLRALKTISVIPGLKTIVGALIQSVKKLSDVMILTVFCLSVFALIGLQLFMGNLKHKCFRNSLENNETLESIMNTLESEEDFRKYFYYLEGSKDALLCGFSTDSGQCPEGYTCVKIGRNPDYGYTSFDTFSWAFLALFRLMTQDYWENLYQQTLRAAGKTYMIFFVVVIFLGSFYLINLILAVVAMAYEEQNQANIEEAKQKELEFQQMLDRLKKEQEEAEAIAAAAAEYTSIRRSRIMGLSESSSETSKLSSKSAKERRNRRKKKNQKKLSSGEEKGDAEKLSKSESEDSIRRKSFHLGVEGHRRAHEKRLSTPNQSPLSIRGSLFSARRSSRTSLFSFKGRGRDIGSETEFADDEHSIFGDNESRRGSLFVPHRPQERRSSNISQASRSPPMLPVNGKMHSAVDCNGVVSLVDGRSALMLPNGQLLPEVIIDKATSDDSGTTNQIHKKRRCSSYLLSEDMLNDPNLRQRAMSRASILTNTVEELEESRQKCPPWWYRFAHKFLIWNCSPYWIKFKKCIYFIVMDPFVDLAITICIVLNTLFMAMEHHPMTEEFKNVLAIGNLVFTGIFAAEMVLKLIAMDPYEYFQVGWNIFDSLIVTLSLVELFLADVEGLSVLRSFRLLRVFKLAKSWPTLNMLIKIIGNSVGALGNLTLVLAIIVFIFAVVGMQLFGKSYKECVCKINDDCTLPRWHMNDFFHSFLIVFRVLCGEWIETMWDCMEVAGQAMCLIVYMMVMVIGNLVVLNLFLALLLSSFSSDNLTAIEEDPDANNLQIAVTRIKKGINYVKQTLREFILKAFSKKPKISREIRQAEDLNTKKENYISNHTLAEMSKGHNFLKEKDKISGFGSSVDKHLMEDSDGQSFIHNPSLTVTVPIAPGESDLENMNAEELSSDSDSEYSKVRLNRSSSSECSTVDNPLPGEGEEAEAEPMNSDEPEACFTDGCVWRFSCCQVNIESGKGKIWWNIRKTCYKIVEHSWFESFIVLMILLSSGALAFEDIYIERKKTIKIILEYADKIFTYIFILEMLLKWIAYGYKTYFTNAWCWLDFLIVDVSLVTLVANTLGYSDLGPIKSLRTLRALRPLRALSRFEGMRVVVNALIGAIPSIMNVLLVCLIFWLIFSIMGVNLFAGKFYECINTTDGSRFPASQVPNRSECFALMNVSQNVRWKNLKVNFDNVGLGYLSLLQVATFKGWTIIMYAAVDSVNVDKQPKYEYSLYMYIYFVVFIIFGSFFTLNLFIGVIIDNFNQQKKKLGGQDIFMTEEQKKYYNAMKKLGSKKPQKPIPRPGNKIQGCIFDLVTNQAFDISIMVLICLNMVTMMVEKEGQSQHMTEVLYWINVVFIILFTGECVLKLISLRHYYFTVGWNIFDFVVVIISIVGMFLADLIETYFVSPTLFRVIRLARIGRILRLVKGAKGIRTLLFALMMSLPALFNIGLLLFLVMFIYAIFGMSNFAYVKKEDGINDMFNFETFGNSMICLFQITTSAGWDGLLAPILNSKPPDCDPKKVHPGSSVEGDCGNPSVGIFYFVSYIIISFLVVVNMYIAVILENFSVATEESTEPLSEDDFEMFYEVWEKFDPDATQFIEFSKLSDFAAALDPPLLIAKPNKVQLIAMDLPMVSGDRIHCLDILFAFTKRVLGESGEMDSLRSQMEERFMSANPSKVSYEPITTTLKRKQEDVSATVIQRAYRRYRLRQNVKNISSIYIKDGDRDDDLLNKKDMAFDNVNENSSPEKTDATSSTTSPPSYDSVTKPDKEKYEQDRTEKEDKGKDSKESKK

| SMILES | Kd [1] | Kd [2] |
| --- | --- | --- |
| CCCCCCCC/C=C\CCCCCCCC(=O)OC(COC(=O)CCCCCCCCCCCCCCC)CO[C@@H]1O[C@H](CO)[C@H](O)[C@H](O)[C@H]1O (stereo partly drawn) [compound 1, 1-palmitoyl-2-oleoyl-3-(β-D-galactosyl)-glycerol] | 49.9 µM | – |
| CCCCCCCCCCCCCCCC(=O)OC[C@H](CO[C@H]1O[C@H](CS(=O)(=O)O)[C@@H](O)[C@H](O)[C@H]1O)OC(=O)CCCCCCCCCCCCCCC [compound 2, sulfoquinovosyldiacylglycerin] | – | 25.2 µM |
